For one experiment, the system named is HA-tagged PML/RARα. Kind of experiment: In vitro degradation assay with lysates of NB4-S1 cells. It counts as biochemical. The conditions noted are these: for blocking of PML/RARα degradation by lysates of arsenic-treated cells: inhibitor added to in vitro degradation assay. Here is the method:
Cell lysates of NB4-S1 cells, either treated for 72 hours with arsenic (1 μM) or left untreated, were obtained using a mild-lysis buffer that supported lysosomal enzymatic activity. In vitro degradation assays were performed using these lysates and HA-tagged PML/RARα was used as a target for degradation.

Experiment [1] relates to retinoic acid-sensitive NB4-S1 APL cells. Kind of experiment: Growth suppression, cell counts (Coulter counter). It counts as cell-based. The conditions noted are these: for growth suppressive activity: agent alone, chloroquine ranked over retinoic acid-sensitive and -resistant cells. Here is the method: Three independent experiments were conducted.
To identify other agents which destabilize lysosomes, APL cells were contacted with test agents and the ability of the test agent to induce cell death was evaluated.

In a further experiment the test system is APL NB4-S1 cells. Description: Cell differentiation, nitroblue tetrazolium reduction assay. In kind it is cell-based. The conditions noted are these: 20 μM, 6 days. How it is done: (§1) Cell differentiation was evaluated using a nitroblue tetrazolium reduction assay, wherein the presence blue formazan deposits under light microscopy is indicative of differentiated cells. Further, apoptosis was evaluated using Hoechst staining of nuclear DNA wherein the DNA was characterized morphologically by nuclear condensation and fragmentation of chromosomes.

The subject of experiment [2] is NB4-S1 APL cells. Description: Apoptosis, Hoechst staining of nuclear DNA. It counts as cell-based. The conditions noted are these: 20 μM. How it is done: as §1
The percentage of apoptotic cells was determined. This experiment was performed independently three times and three random fields were selected to assess the percentage of apoptotic cells.

A further experiment concerns NB4-S1 cells. Kind of experiment: Lysosome destabilization, lysosome-specific targeting dye and confocal microscopy. In kind it is cell-based. The conditions noted are these: compared to untreated cells. Here is the method:
(§2) By way of illustration, arsenic was applied to APL, retinoic acid-sensitive NB4-S1 cells and found to rapidly (within 2 hours) destabilize lysosomes in these leukemic cells as compared to untreated cells in an assay using a lysosome-specific targeting dye and confocal microscopy. […] Conversely, cytochrome c (an activator of caspase-induced apoptosis) was not detected in the cytosol until 96 hours.

Experiment [3] concerns NB4-S1 APL cells. Description: Release of lysosomal proteins / cytochrome c into the cytosolic fraction, SDS-PAGE and immunoblot. In kind it is cell-based. The conditions noted are these: after 1 μM arsenic treatment. Here is the method:
as §2
(In general: A western blot detects proteins with antibodies after separation by electrophoresis.)

In experiment [4] the test system is isolated lysosomes from NB4 APL cells. Kind of experiment: Degradation of isolated lysosomes in vitro. The text has this:
(§3) This arsenic-activated degradation program was also engaged by non-leukemic cells. […] Accordingly, this lysosome-dependent degradative pathway can be employed as a general therapeutic target for the destruction of oncogenic (e.g., PML/RARα) or aberrant (e.g., CFTR) proteins in the prevention and treatment of cancer or other diseases which are associated with said proteins. Further, lysosome destabilization can be used to identify other small molecule activators which, like arsenic, would have therapeutic activity via induced destabilization of lysosomes that would in turn eliminate oncogenic or other aberrant proteins by triggering their destruction.

In experiment [5] the test system is wild-type cystic fibrosis protein (CFTR). Kind of experiment: CFTR degradation by cell content of arsenic-exposed COS cells. It counts as biochemical. The conditions noted are these: CFTR over-expressed in MDCK cells; cell content of COS exposed to arsenic.
Source text: as §3

These results are taken from patent US8124371B2, “Compositions and methods for destabilizing lysosomes to increase oncogenic or aberrant protein degradation” (priority 2003, dated 2012).

Molecules are shown by their SMILES. Where a SMILES comes first, the peptide text is derived from it. [ ]: non-standard residue; d: D form. The star is where a group is joined. Nle = CCCC[C@H](N)C(=O)O; Cbz = O=C(OCc1ccccc1)*; CH2F = FC* Where only a bound is given, the exact number is not on record here.

For `CCCC[C@@H](C=O)NC(=O)[C@H](CC(C)C)NC(=O)[C@H](CC(C)C)NC(C)=O` [ALLN] (Ac-Leu-Leu-[Nle]-aldehyde), the “blocking of PML/RARα degradation by lysates of arsenic-treated cells” value in the experiment on HA-tagged PML/RARα is listed as “did not block PML/RARα degradation”.
Consider `CCN(CC)CCCC(C)Nc1ccnc2cc(Cl)ccc12` (centres unmarked) [Chloroquine, 7-chloro-4-(4-diethylamino-1-methylbutylamino) quinoline], for which the “growth inhibitory effect in combination with retinoic acid” value in experiment [1] (chloroquine 20 μM combined with retinoic acid 0.1 μM, FIG. 1A) is “additive growth inhibitory effect”. Moreover, in the experiment on APL NB4-S1 cells, the induction of differentiation result is “does not induce differentiation”. Further, the induction of apoptosis result in the experiment with NB4-S1 APL cells [2] is “exposure time-dependent”. The results for the “% Apoptosis” value in the experiment on NB4-S1 APL cells [2] (24 hours), in the experiment on NB4-S1 APL cells [2] (48 hours) and with NB4-S1 APL cells [2] (72 hours) were 16%, 20% and 30%, respectively.
Regarding `CN(C)CCCN1c2ccccc2CCc2ccccc21` [Imipramine], the growth suppressive activity result in experiment [1] was “some growth suppressive activity”.
On the same count and under the same terms, the value for `CCCCCCCCCCCCC/C=C/[C@@H](O)[C@H](CO)NCCCCCCCC` [N-octyl-D-erythro-sphingosine] was “some growth suppressive activity”.
Regarding `[AsH3]` [arsenic], the “time to destabilize lysosomes” value in the experiment on NB4-S1 cells is no more than 2 h. In addition, in the experiment with NB4-S1 APL cells [3], the “cathepsin B detectable in the cytosolic fraction, earliest time” value is 30 min; the “cytochrome c not detected in the cytosol until” value was 96 h; the “lysosomal protein esterase detectable in the cytosolic fraction, earliest time” value is 5 min. Besides, the “PML/RARα degradation by cell lysates of treated NB4-S1 cells” value in the experiment with HA-tagged PML/RARα (cells treated 72 hours, 1 μM, versus untreated cell lysates) is reported as “rapidly degraded”. Also, in experiment [4], the “degradation of isolated lysosomes upon treatment” value is reported as “exhibited degradation in vitro”. The CFTR degradation entry in experiment [5] is recorded as “observed to be degraded”.
Regarding `CC(NC(=O)C(NC(=O)OCc1ccccc1)C(C)C)C(=O)NC(CC(=O)O)C(=O)CF` (stereo not drawn) [zVAD] (Cbz-Val-Ala-Asp-CH2F; configuration not given here), the “blocking of PML/RARα degradation by lysates of arsenic-treated cells” value in the experiment on HA-tagged PML/RARα is “did not block PML/RARα degradation”.
